Measured values: US9557319B2, “Cell-based arrays, methods of making, and methods of using” (University of Florida Research Foundation, Inc., priority 2010, dated 2017)

How the values were obtained:
HCT116 cells = assay: HCT116 cell number (Hoechst nuclear stain) on drug-loaded microarray; format: cell-based, human
Text: The following figures (FIGS. 5.1 to 5.4) are micrographs taken from drug-eluting cellular microarrays, manufactured as described herein. The images are taken from individual cellular islands from the same array under various drug-loading conditions over a period of three days. HCT116 cells are nuclear stained with Hoechst for easy visibility. […] The water phase for this experiment was loaded with azide at various concentrations in addition to a control with no drug loaded. Azide is a useful probe reagent, mutagen, and preservative. Azide inhibits cytochrome oxidase by binding irreversibly to the heme cofactor in a process similar to the action of carbon monoxide. As such, it is expected to induce necrosis in cells at physiologically relevant doses.
To establish microarray fidelity, microarrays were manufactured as described above. HCT116 cells were then seeded over microarrays and incubated for 24 or 72 h. Microarrays were fixed in 4% paraformaldehyde and stained with Hoechst 34580 dye.
Camptothecin-loaded microarrays were stained with Annexin V (BD Pharminigen), fixed in 4% paraformaldehyde, and placed in PBS with Hoechst dye 34580 (Invitrogen, USA) for 30 min. Azide-loaded microarrays were fixed with 4% paraformaldehyde and incubated with PBS containing Hoechst 34580 dye. Finally, nutlin-3a-loaded microarrays were fixed with 4% paraformaldehyde, stained with BrdU (BD Bioscience, San Jose, Calif.), and incubated in PBS containing Hoechst 34580 dye. All arrays were mounted with Fluoro-Gel (Electron Microscope Sciences, Hatfield, Pa.) and imaged using an Axiovert 200M microscope (Carl Zeiss, Oberkochen, Germany). Analysis was performed with Axiovision (Carl Zeiss, Oberkochen, Germany) by quantifying, in each drug-eluting island, the area of fluorescence and reported as relative fluorescence intensity (RFI).

[1] = Loading efficiency of small molecules in microarrayed EVA films; format: physicochemical
Experimental: To embed molecules into the polymer matrix, they were first dissolved in an appropriate solvent, depending on their respective hydrophobicity. A stock solution of azide (99%, Acros), a hydrophilic molecule, was dissolved in dH2O whereas Nutlin-3a (EMD Chemicals, Gibbstown, N.J.) and camptothecin (Sigma), both hydrophobic molecules, were dissolved in DMSO. Dissolved drugs were then added to 5% EVA at a 1:10 ratio of solvent:EVA. Prior to printing, polymer mixtures were vortexed for 30 s and then homogenized for 1 min before being loaded onto the source plate of the robotic mini-arrayer.
To determine the loading efficiency of factors, polymer formulations were made as described above. Films derived from 100 μl EVA loaded with factors were then made on glass coverslips and allowed to dry overnight under vacuum. Films were removed from the glass substrates and weighed. Films were washed briefly with PBS before being placed in 1 ml toluene to dissolve the polymer. Samples were then analyzed using a Nanodrop-ND-1000 spectrophotometer. Standard curves were generated for each factor, and loading efficiency was calculated as the percent of drug embedded in the polymer compared to the theoretical drug concentration.

[N-]=[N+]=[N-] [Azide]
response of HCT116 cell density on azide-loaded ELVAX islands (HCT116 cells; 37.5 and 75 mM azide, 5-68 h): dose-dependent response
cell counts of HCT116 on drug-loaded film after attachment (HCT116 cells; 1 h after seeding, across loading concentrations, ANOVA p=0.490): No statistical difference
HCT116 cell numbers vs drug loading concentration (HCT116 cells; after 24 h): decreased with increasing loading concentrations
Loading efficiency (%) [1]: 73 +/− 8%
